For experiment [1], the target named is PIM1 (Homo sapiens (Human), UniProt P11309). Briefly: Pim kinase inhibition, PIM1 LC3K (Example 901). The format is biochemical.
Excerpt: Determination of the Pim kinase activity of a Formula I compound is possible by a number of direct and indirect detection methods.
For experiment [2], the system named is BaF3 parental cells. Briefly: In vitro cell proliferation, BaF3 parental line + IL3 (CellTiter-Glo). The note with it: read-out: Prolif BaF3 + IL3 (IC50). The format is cell-based, murine. In general terms: ATP-based viability assays read luminescence as a measure of living cells.
Description: BaF3 parental line was obtained from the DSMZ repository. BaF3 lines transfected with PIM 1 or PIM2 were generated. Mouse IL-3 was purchased from R&D Systems. G418 was purchased from Clontech. Media for BaF3 parental line contained RPMI, 10% FBS, 2 mM L-Glutamine, 2 ng/mL mIL-3. Media for BaF3 PIM1 & 2 lines contained RPMI, 10% FBS, 2 mM L-Glutamine, 250 μg/mL.
BaF3, a murine interleukin-3 dependent pro-B cell line, parental cells, BaF3 PIM1 cells, BaF3 PIM2 cells, and MM1.S (multiple myeloma) cells were seeded at 2 k/well, 5 k/well, 5 k/well, and 10 k/well respectively, in a 384-well plate, at 45 μL/well. Test compound was added at 5 μL/well. BaF3 cells (parental and transfected) were incubated overnight, while MM1.S cells were incubated for 72 hours at 37° C., 5% CO2. CELL TITER GLO® Reagent (Promega) was added at 50 μL/well, the plates were incubated for 30 minutes, and their luminescence read on an HT Analyst. IC50/EC50 values for the test compound were calculated.
For experiment [3], the system named is MM1.S (multiple myeloma) cells. Briefly: In vitro cell proliferation, MM1.S multiple myeloma cells (CellTiter-Glo, ATP). The format is cell-based. The note with it: read-out: Prolif MM1S ATP (EC50). The essentials: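 BaF3 parental cells (medium with 2 ng/mL mIL-3) seeded at 2 k/well and MM1.S at 10 k/well, then exposed to test compound at 37° C, 5% CO2: BaF3 overnight, MM1.S for 72 hours. Viability read by CellTiter-Glo; IC50/EC50 values calculated.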

The test system of experiment [4] is BaF3 PIM1 cells. The note with it: read-out: Prolif BaF3_PIM1 (IC50), incubated overnight.
The subject of experiment [5] is BaF3 PIM1 cells. The experiment in a line: cells. The note with it: Mus musculus, BaF3, read-out: Prolif BaF3_PIM1 (IC50), BaF3 PIM1 cells, incubated overnight.
[6] abbreviates: Mus musculus, BaF3, BaF3 parental cells with IL-3, incubated overnight.

Where two headings read alike, the source gives them in different places. A value given as a limit tells only on which side of the number the result lay.

By Ki is commonly meant the dissociation constant of the complex between target and ligand, obtained from inhibition or displacement. What is called IC50 is the midpoint of a concentration-inhibition curve. By EC50 is commonly meant the concentration giving half of the maximal effect.

Chain of PIM1 (P11309 whole entry): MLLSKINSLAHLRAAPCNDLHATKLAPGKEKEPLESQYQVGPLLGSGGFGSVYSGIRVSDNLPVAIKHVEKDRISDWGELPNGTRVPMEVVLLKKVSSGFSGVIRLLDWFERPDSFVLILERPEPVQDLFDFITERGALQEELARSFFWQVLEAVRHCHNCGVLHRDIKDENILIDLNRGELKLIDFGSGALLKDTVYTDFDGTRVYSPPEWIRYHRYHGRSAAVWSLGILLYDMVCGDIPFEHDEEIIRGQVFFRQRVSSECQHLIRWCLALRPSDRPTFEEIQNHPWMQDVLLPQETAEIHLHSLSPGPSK

`CCn1ncc(NC(=O)c2nc(-c3c(F)cccc3F)sc2N)c1N1CCC(N)C(OC)CC1` (single isomer, unassigned) [Example 406, 5-amino-N-[5-(4-amino-5-methoxy-azepan-1-yl)-1-ethyl-pyrazol-4-yl]-2-(2,6-difluorophenyl)thiazole-4-carboxamide]: the affinity in experiment [1], expressed as Ki, was 0.133 nM. The values for the half-inhibitory concentration (IC50) in experiment [2] (setting [6]) and in experiment [4] were 12000 nM and 284 nM, respectively. In addition, the EC50 in experiment [3] (72 hours) was 404 nM.

`CCn1ncc(NC(=O)c2nc(-c3c(F)cccc3F)sc2N)c1N1CCC(N)C(OC)CC1` (single isomer, unassigned) [Example 407, 5-amino-N-[5-(4-amino-5-methoxy-azepan-1-yl)-1-ethyl-pyrazol-4-yl]-2-(2,6-difluorophenyl)thiazole-4-carboxamide] had a Ki in experiment [1] of 0.204 nM. Besides, the IC50 in experiment [2] (BaF3 parental cells with IL-3, incubated overnight) came out at 9800 nM; in experiment [4], 795 nM. In experiment [3] (72 hours), the EC50 stood at 3500 nM.

The compound `Cn1ncc(NC(=O)c2nc(-c3cccc(C#N)n3)sc2N)c1N1CC[C@@H](N)CC(F)(F)C1` [Example 461, 5-amino-N-[5-[(5R)-5-amino-3,3-difluoro-azepan-1-yl]-1-methyl-pyrazol-4-yl]-2-(6-cyano-2-pyridyl)thiazole-4-carboxamide] had a Ki in experiment [1] of 0.08 nM. Also, the values for the IC50 in experiment [2] (setting [6]) and in experiment [5] were 16600 nM and 39.7 nM, respectively. For the same compound, the EC50 in experiment [3] (Homo sapiens, MM1.S, 72 h) is 211 nM.

`Cc1nn(C)cc1-c1nc(C(=O)Nc2cnn(C)c2N2CC[C@@H](N)CC(F)(F)C2)c(N)s1` [Example 462, 5-amino-N-[5-[(5R)-5-amino-3,3-difluoro-azepan-1-yl]-1-methyl-pyrazol-4-yl]-2-(1,3-dimethylpyrazol-4-yl)thiazole-4-carboxamide]: the affinity in experiment [1] corresponds to a Ki of 0.03 nM. Also, the IC50 in experiment [2] (setting [6]) turned out to be 8000 nM; in experiment [5], 32.6 nM. The half-maximal effective concentration (EC50) in experiment [3] (Homo sapiens, MM1.S, 72 h) amounted to 1200 nM.

With `Cc1c(-c2nc(C(=O)Nc3cnn(C)c3N3CC[C@@H](N)CC(F)(F)C3)c(N)s2)cnn1C` [Example 463, 5-amino-N-[5-[(5R)-5-amino-3,3-difluoro-azepan-1-yl]-1-methyl-pyrazol-4-yl]-2-(1,5-dimethylpyrazol-4-yl)thiazole-4-carboxamide], the inhibition constant Ki in experiment [1] stood at 0.018 nM. The IC50 in experiment [2] (setting [6]) is greater than 25000 nM; in experiment [5] it was 58.4 nM. Further, in experiment [3] (Homo sapiens, MM1.S, 72 h), the EC50 stood at 108 nM.

Regarding `Cc1cc(-c2nc(C(=O)Nc3cnn(C)c3N3CC[C@@H](N)CC(F)(F)C3)c(N)s2)ccn1` [Example 464, 5-amino-N-[5-[(5R)-5-amino-3,3-difluoro-azepan-1-yl]-1-methyl-pyrazol-4-yl]-2-(2-methyl-4-pyridyl)thiazole-4-carboxamide], the Ki in experiment [1] turned out to be 0.06 nM. Moreover, the 50% inhibitory concentration (IC50) was determined as 15900 nM in experiment [2] (setting [6]) and 11.9 nM in experiment [5]. The EC50 in experiment [3] (Homo sapiens, MM1.S, 72 h) came out at 467 nM.

`COC1(C)CC(N)CCN(c2c(NC(=O)c3nc(-c4c(F)cncc4F)sc3N)cnn2C)C1` (stereo not shown) [Example 473, 5-amino-N-[5-(5-amino-3-methoxy-3-methyl-azepan-1-yl)-1-methyl-pyrazol-4-yl]-2-(3,5-difluoro-4-pyridyl)thiazole-4-carboxamide] yielded an inhibition constant Ki in experiment [1] of 0.009 nM. Besides, the half-inhibitory concentration (IC50) in experiment [2] (setting [6]) worked out at 25000 nM; in experiment [5] it was 41.1 nM. For the same compound, in experiment [3] (Homo sapiens, MM1.S, 72 h), the EC50 came to 248 nM.

For `COC1(C)CC(N)CCN(c2c(NC(=O)c3nc(-c4ccncc4F)sc3N)cnn2C)C1` (stereo not shown) [Example 476, 5-amino-N-[5-(5-amino-3-methoxy-3-methyl-azepan-1-yl)-1-methyl-pyrazol-4-yl]-2-(3-fluoro-4-pyridyl)thiazole-4-carboxamide], the Ki in experiment [1] was found to be 0.013 nM. The figures for the IC50 in experiment [2] (setting [6]) and in experiment [5] were 25000 nM and 24.5 nM, respectively. For the same compound, in experiment [3] (Homo sapiens, MM1.S, 72 h), the EC50 was found to be 872 nM.

With `[2H]C([2H])([2H])OC1CCN(c2c(NC(=O)c3nc(-c4ccccc4F)sc3N)cnn2C)CCC1N` (stereo not shown) [Example 491, 5-amino-N-[5-[4-amino-5-(trideuteriomethoxy)azepan-1-yl]-1-methyl-pyrazol-4-yl]-2-(2-fluorophenyl)thiazole-4-carboxamide], the Ki in experiment [1] stood at 0.055 nM. The results for the 50% inhibitory concentration (IC50) in experiment [2] (setting [6]) and in experiment [5] were greater than 25000 nM and 44.9 nM, respectively. In addition, the EC50 in experiment [3] (Homo sapiens, MM1.S, 72 h) came out at 67.9 nM.

Regarding `Cn1ncc(NC(=O)c2nc(-c3c(F)cccc3F)sc2N)c1N1CCC(N)C2(CCO2)CC1` (stereo not shown) [Example 510, 5-amino-N-[5-(5-amino-1-oxa-8-azaspiro[3.6]decan-8-yl)-1-methyl-pyrazol-4-yl]-2-(2,6-difluorophenyl)thiazole-4-carboxamide], the Ki in experiment [1] turned out to be 0.095 nM. In addition, the IC50 was found to be 22000 nM in experiment [2] (setting [6]) and 623 nM in experiment [5]. Also, the half-maximal effective concentration (EC50) in experiment [3] (Homo sapiens, MM1.S, 72 h) was determined as 5600 nM.

Values taken from patent US8614206B2 (Genentech, Inc., priority 2011, dated 2013).
